Consider 2 molecules from ChEMBL document CHEMBL3124778, “Structure-based design of new dihydrofolate reductase antibacterial agents: 7-(benzimidazol-1-yl)-2,4-diaminoquinazolines” (J Med Chem, 2014).

Data set [1] relates to Streptococcus pneumoniae. The data set is described as follows: Antibacterial activity against Streptococcus pneumoniae ATCC 700675 after 18 to 24 hrs by alamar Blue assay. In kind it is functional. On the technique in general: Alamar Blue is a resazurin reagent that responds to reducing activity.
Data set [2] concerns Streptococcus pneumoniae. The data set is described as follows: Antibacterial activity against Streptococcus pneumoniae ATCC 700904 after 18 to 24 hrs by alamar Blue assay. It counts as functional.
A short description of data set [3]: Terminal half life in BALB/c mouse at 5 mg/kg, iv. It counts as ADME, organism-based. On the set-up: dose 5 mg/kg, route intravenous. To be noted: in vivo, read-out: beta t1/2 (converted).
For data set [4], the system named is Streptococcus pneumoniae. In words: Antibacterial activity against Streptococcus pneumoniae ATCC 700674 after 18 to 24 hrs by alamar Blue assay. It counts as functional.
A short description of data set [5]: Plasma concentration in BALB/c mouse at 5 mg/kg, iv measured at 2 mins by LC-MS/MS analysis. In kind it is ADME, organism-based. On the set-up: dose 5 mg/kg, route intravenous.
Data set [6] has as its system Streptococcus pneumoniae. The data set is described as follows: Antibacterial activity against Streptococcus pneumoniae ATCC 700677 after 18 to 24 hrs by alamar Blue assay. It counts as functional.
Data set [7] relates to Streptococcus pneumoniae. The data set is described as follows: Antibacterial activity against Streptococcus pneumoniae ATCC 700676 after 18 to 24 hrs by alamar Blue assay. In kind it is functional.
A short description of data set [8]: AUClast in BALB/c mouse at 5 mg/kg, iv. It counts as ADME, organism-based. Also on record: dose 5 mg/kg, route intravenous, time 0 - last. To be noted: plasma.
Data set [9] relates to Staphylococcus aureus. The data set is described as follows: animal or person. To be noted: ATCC 13709, in Mus musculus, iv, 24 h, read-out: PD50.
Description: Antibacterial activity against Staphylococcus aureus ATCC 13709 infected in iv dosed BALB/c mouse septicemia model assessed as protection from lethal infection after 24 hrs
The subject of data set [10] is Staphylococcus aureus. In words: Antibacterial activity against Staphylococcus aureus ATCC 13709 after 18 to 24 hrs by alamar Blue assay. It counts as functional.
The nature of data set [11]: Apparent volume of distribution in BALB/c mouse at 5 mg/kg, iv. In kind it is ADME, organism-based. Also on record: dose 5 mg/kg, route intravenous. To be noted: in vivo, read-out: Vz.
Data set [12] deals with Streptococcus pneumoniae. The data set is described as follows: Antibacterial activity against Streptococcus pneumoniae ATCC 700671 after 18 to 24 hrs by alamar Blue assay. It counts as functional.
Data set [13] concerns Streptococcus pneumoniae. The data set is described as follows: Antibacterial activity against Streptococcus pneumoniae ATCC 51916 after 18 to 24 hrs by alamar Blue assay. It counts as functional.
The subject of data set [14] is Streptococcus pneumoniae. The data set is described as follows: Antibacterial activity against Streptococcus pneumoniae after 18 to 24 hrs by alamar Blue assay. In kind it is functional.
For data set [15], the system named is Streptococcus pneumoniae. In words: Antibacterial activity against Streptococcus pneumoniae ATCC 700669 after 18 to 24 hrs by alamar Blue assay. It counts as functional.
Data set [16] has as its system Streptococcus pneumoniae. In words: Antibacterial activity against Streptococcus pneumoniae ATCC 49619 after 18 to 24 hrs by alamar Blue assay. It counts as functional.
The subject of data set [17] is Staphylococcus aureus. The data set is described as follows: Antibacterial activity against Staphylococcus aureus ATCC 13709 after 18 to 24 hrs by alamar Blue assay in presence of 20% heat inactivated mouse serum. It counts as functional.
Data set [18] in a line: Total clearance in BALB/c mouse at 5 mg/kg, iv. In kind it is ADME, organism-based. As to conditions: in vivo. Also on record: dose 5 mg/kg, route intravenous.
For data set [19], the system named is Streptococcus pneumoniae. In words: Antibacterial activity against Streptococcus pneumoniae ATCC BAA-255 after 18 to 24 hrs by alamar Blue assay. In kind it is functional.
Data set [20] concerns Staphylococcus aureus. The data set is described as follows: Ratio of iclaprim MIC to compound MIC for TMP-resistant Staphylococcus aureus expressing DHFR F99Y mutant. In kind it is functional.
For data set [21], the system named is Staphylococcus aureus. The data set is described as follows: Antibacterial activity against TMP-resistant Staphylococcus aureus expressing DHFR F99Y mutant after 18 to 24 hrs by alamar Blue assay. In kind it is functional.
Data set [22] is described as follows: Selectivity ratio of Ki for human DHFR to Ki for Staphylococcus aureus DHFR.

Values after ≈ are worked out from the molar mass of the structure shown.

As for `Cc1cc2nc(-c3nccs3)n(-c3ccc4c(N)nc(N)nc4c3)c2cc1C`, the MIC (as a rule, the least concentration at which growth counts as inhibited) is at most 0.5 µg/mL in the data set on Streptococcus pneumoniae [1]; 4 µg/mL (≈ 10.3 µM) in the data set with Streptococcus pneumoniae [2]; 8 µg/mL (≈ 20.6 µM) in the data set with Streptococcus pneumoniae [4]; at most 0.5 µg/mL with Streptococcus pneumoniae [6]; at most 0.5 µg/mL in the data set on Streptococcus pneumoniae [7]; 0.015 µg/mL (≈ 0.0387 µM) with Staphylococcus aureus [10]. For the same molecule, the MIC with Streptococcus pneumoniae [12] was 32 µg/mL (≈ 82.6 µM); against Streptococcus pneumoniae [13] it was at most 0.5 µg/mL; in the data set with Streptococcus pneumoniae [15], 8 µg/mL (≈ 20.6 µM); against Streptococcus pneumoniae [16], 0.25 µg/mL (≈ 0.645 µM); with Staphylococcus aureus [17] it was 0.125 µg/mL; against Streptococcus pneumoniae [19], at most 0.5 µg/mL. In addition, the MIC against Staphylococcus aureus [21] came out at 0.25 µg/mL (≈ 0.645 µM). Moreover, the half-life in data set [3] was 1.4 h. In addition, in [5], the concentration at 2 min turned out to be 12700 ng/mL. In data set [8], the AUC(0-t) (as a rule, the area under the concentration-time curve up to a stated or last time point) was 2400 ng·h/mL. The ED50 with Staphylococcus aureus [9] turned out to be 2 mg/kg. Moreover, in data set [11], the Vd was 4.4 L/kg. Further, in the data set on Streptococcus pneumoniae [14], the MIC50 (commonly the lowest concentration that inhibits either 50% of growth or 50% of the strains tested, depending on the study) is at most 0.5 µg/mL. Besides, the MIC90 (in general, an inhibitory concentration at the 90% level, which refers to growth in some studies and to a panel of isolates in others) in the data set with Streptococcus pneumoniae [14] was 8 µg/mL (≈ 20.6 µM). Besides, the clearance (in general, the rate of elimination divided by the concentration) in data set [18] was 35 mL/min/kg. The Ratio with Staphylococcus aureus [20] is 8.
`Cc1cc2nc(-c3nccs3)n(-c3cc4nc(N)nc(N)c4cc3Cl)c2cc1C`: the MIC against Streptococcus pneumoniae [1] was at most 0.5 µg/mL; against Streptococcus pneumoniae [2], 1 µg/mL (≈ 2.37 µM); in the data set with Streptococcus pneumoniae [4] it was 4 µg/mL (≈ 9.48 µM); with Streptococcus pneumoniae [6], at most 0.5 µg/mL; in the data set with Streptococcus pneumoniae [7], at most 0.5 µg/mL; in the data set on Staphylococcus aureus [10], 0.125 µg/mL (≈ 0.296 µM). Further, the MIC is 4 µg/mL (≈ 9.48 µM) in the data set with Streptococcus pneumoniae [12]; at most 0.5 µg/mL in the data set on Streptococcus pneumoniae [13]; 4 µg/mL (≈ 9.48 µM) in the data set with Streptococcus pneumoniae [15]; 0.125 µg/mL (≈ 0.296 µM) with Streptococcus pneumoniae [16]; at most 0.5 µg/mL in the data set on Streptococcus pneumoniae [19]; 0.25 µg/mL (≈ 0.593 µM) in the data set with Staphylococcus aureus [21]. For the same molecule, in [22], the Ratio Ki was determined as 690. The molecule further yielded an MIC50 in the data set on Streptococcus pneumoniae [14] of at most 0.5 µg/mL. In the data set with Streptococcus pneumoniae [14], this molecule yielded an MIC90 of 4 µg/mL (≈ 9.48 µM).
